Values of other authors in patent publication US8404246B2, “Nutritional supplement to improve supplementary target protein fraction (TPF) delivery, intracellular absorption and utilization” (priority 2010, dated 2013).
Read-outs that look alike come from different tables or passages of the source.

Experiments:
[1] = exogenous form

CC(=O)N[C@H]1C(O)O[C@H](CO)[C@@H](O)[C@@H]1O (stereo partly drawn) [N-acetyl D-glucosamine, N-Acetyl D-Glucosamine]
solubility in water [1]: readily soluble

Cl.N[C@H]1C(O)O[C@H](CO)[C@@H](O)[C@@H]1O (stereo partly drawn) [glucosamine HCl]
ingested glycoprotein detectable in serum after dosing (in vivo): 6%

glucosamine NaCl
ingested glycoprotein detectable in serum after dosing (one recent study): 9%
